Data as given in patent publication US20260223593A1, “Organic Compound, Light-Emitting Device, Display Apparatus, And Electronic Appliance” (Semiconductor Energy Laboratory Co., Ltd., priority 2023, published 2026).
Values after ≈ are worked out from the molar mass of the structure shown.

Test: Solubility test of Ph3TP-hpp by LC/MS analysis (water solubility)
Assay type: physicochemical
Description: In the LC/MS analysis, LC (liquid chromatography) separation was carried out with Acquity UPLC (registered trademark) produced by Waters Corporation, and MS analysis (mass spectrometry) was carried out with Xevo G2 Tof MS produced by Waters Corporation. Acquity UPLC BEH C8 (2.1×100 mm, 1.7 μm) was used as a column for the LC separation. Acetonitrile was used for Mobile Phase A and a 0.1% aqueous solution of formic acid was used for Mobile Phase B. The injection amount of the sample was 5.0 μL. Note that in the analysis, the wavelength of a photodiode array detector was set to 246 nm±1 nm.
In a 5-mL sample bottle, 1 mg of Ph3TP-hpp was put and 2 mL of toluene was added thereto, and then this mixture was irradiated with ultrasonic waves for five minutes. After it was confirmed that the solid was completely dissolved, this solution was diluted by 2.5 times with acetonitrile, whereby the concentration of the solution was adjusted to 200 mg/L. This solution was diluted with acetonitrile, whereby solutions with concentrations of 20 mg/L, 10 mg/L, and 4 mg/L were prepared. The prepared solutions were subjected to LC/MS analysis, and the peak area values derived from Ph3TP-hpp, which were obtained at the respective solution concentrations, were used to form calibration curves.
Next, the water solubility of Ph3TP-hpp was measured.
In a 5-mL sample bottle, 1 mg of Ph3TP-hpp was put and 1 mL of water was added thereto, and then this mixture was irradiated with ultrasonic waves for five minutes. This mixture was filtered through a membrane filter to remove the solid, and the obtained filtrate was diluted by five times with acetonitrile. The obtained solution was subjected to LC/MS analysis.

SMILES: c1ccc(-c2cc(-c3cccc(N4CCCN5CCCN=C54)c3)c(-c3ccccc3)c(-c3ccccc3)c2-c2ccccc2)cc1 [Ph3TP-hpp, 1-(3′,4′,5′-triphenyl-1,1′:2′,1″-terphenyl-3-yl)-1,3,4,6,7,8-hexahydro-2H-pyrimide[1,2-a]pyrimidine]
- solubility of Ph3TP-hpp dissolved in 1 mL of water (1 mg in 1 mL of water, ultrasonic waves five minutes, membrane filtered, filtrate by LC/MS against calibration curve): 0.031 mg
- solubility at 5 min (thermodynamic from solid, water, from 0.031 mg in 1 mL, read-out: weight fraction of the water solubility): 31 µg/mL (≈ 52 µM)
- water solubility (in words) (water, LC/MS solubility test): low water solubility
